In PMC6225122 (2018) one finds binding, Kd and IC50 data, which are given here for 4 compounds.

The structures appear in SMILES notation. Values after ≈ are worked out from the molar mass of the structure shown.

For experiment [1], the system named is aptamer 28 (DNA, aptamer) ACGCATAGGATGCAACAACGCGAATGCCACCAATTCGTGCTTGTCGTGTCCTATGCGT
Nature of the experiment: circular dichroism. To be noted: binding buffer: 8 g/L NaCl, 0.2 g/L KCl, 0.1 g/L MgCl2·6H2O, 0.1 g/L CaCl2; 1 μM aptamer, 10 μM CBL, room temperature, 30 min.

Experiment [2] deals with aptamer 47 (DNA, aptamer) ACGCATAGGTCATGCCAAGCTGTACACCGTCCTGGCCTGGTTGGGATGTCCTATGCGT
As to the kind of experiment: circular dichroism. Particulars: binding buffer: 8 g/L NaCl, 0.2 g/L KCl, 0.1 g/L MgCl2·6H2O, 0.1 g/L CaCl2; 1 μM aptamer, 10 μM CBL, room temperature, 30 min.

Experiment [3] deals with aptamer 64 (DNA, aptamer) ACGCATAGGTACACCACATCGGATCGTAATGCGTATGTGACTCAGTGTGCCTATGCGT
Nature of the experiment: circular dichroism. To be noted: binding buffer: 8 g/L NaCl, 0.2 g/L KCl, 0.1 g/L MgCl2·6H2O, 0.1 g/L CaCl2; 1 μM aptamer, 10 μM CBL, room temperature, 30 min.

Experiment [4] concerns aptamer 78 (DNA, aptamer) ACGCATAGGGTACGCCACAGATCGACCTCTGGTTGGTCCTGTTGTGTGGCCTATGCGT
Nature of the experiment: circular dichroism. Particulars: binding buffer: 8 g/L NaCl, 0.2 g/L KCl, 0.1 g/L MgCl2·6H2O, 0.1 g/L CaCl2; 1 μM aptamer, 10 μM CBL, room temperature, 30 min.

The subject of experiment [5] is aptamer 132 (DNA, aptamer) ACGCATAGGGACCATGCGCAGTGAACTTGGTTCTTTGTGCTCATGTGTGCCTATGCGT
Nature of the experiment: circular dichroism. Particulars: binding buffer: 8 g/L NaCl, 0.2 g/L KCl, 0.1 g/L MgCl2·6H2O, 0.1 g/L CaCl2; 1 μM aptamer, 10 μM CBL, room temperature, 30 min.

Experiment [6] relates to aptamer 154 (DNA, aptamer) ACGCATAGGGCATCACACATGTCCTTGCCATTGCTGACTTGTTTGGTGTCCTATGCGT
As to the kind of experiment: circular dichroism. Particulars: binding buffer: 8 g/L NaCl, 0.2 g/L KCl, 0.1 g/L MgCl2·6H2O, 0.1 g/L CaCl2; 1 μM aptamer, 10 μM CBL, room temperature, 30 min.

For experiment [7], the system named is aptamer 28 (DNA, aptamer) ACGCATAGGATGCAACAACGCGAATGCCACCAATTCGTGCTTGTCGTGTCCTATGCGT
Nature of the experiment: AuNP colorimetric titration (A520). To be noted: 0.9 M NaCl (10 µL) added after binding; aptamer 0-1600 nM titrated against 1 μg/mL CBL, water, 30 min, room temperature.

Experiment [8] deals with aptamer 47 (DNA, aptamer) ACGCATAGGTCATGCCAAGCTGTACACCGTCCTGGCCTGGTTGGGATGTCCTATGCGT
As to the kind of experiment: AuNP colorimetric titration (A520). Particulars: 0.9 M NaCl (10 µL) added after binding; aptamer 0-1600 nM titrated against 1 μg/mL CBL, water, 30 min, room temperature.

The subject of experiment [9] is aptamer 64 (DNA, aptamer) ACGCATAGGTACACCACATCGGATCGTAATGCGTATGTGACTCAGTGTGCCTATGCGT
As to the kind of experiment: AuNP colorimetric titration (A520). To be noted: 0.9 M NaCl (10 µL) added after binding; aptamer 0-1600 nM titrated against 1 μg/mL CBL, water, 30 min, room temperature.

Experiment [10] has as its system aptamer 78 (DNA, aptamer) ACGCATAGGGTACGCCACAGATCGACCTCTGGTTGGTCCTGTTGTGTGGCCTATGCGT
Nature of the experiment: AuNP colorimetric titration (A520). To be noted: 0.9 M NaCl (10 µL) added after binding; aptamer 0-1600 nM titrated against 1 μg/mL CBL, water, 30 min, room temperature.

For experiment [11], the system named is aptamer 132 (DNA, aptamer) ACGCATAGGGACCATGCGCAGTGAACTTGGTTCTTTGTGCTCATGTGTGCCTATGCGT
As to the kind of experiment: AuNP colorimetric titration (A520). Particulars: 0.9 M NaCl (10 µL) added after binding; aptamer 0-1600 nM titrated against 1 μg/mL CBL, water, 30 min, room temperature.

Experiment [12] deals with aptamer 154 (DNA, aptamer) ACGCATAGGGCATCACACATGTCCTTGCCATTGCTGACTTGTTTGGTGTCCTATGCGT
As to the kind of experiment: AuNP colorimetric titration (A520). Particulars: 0.9 M NaCl (10 µL) added after binding; aptamer 0-1600 nM titrated against 1 μg/mL CBL, water, 30 min, room temperature.

Experiment [13] has as its system 5′-biotin aptamer 47 (DNA, aptamer) ACGCATAGGTCATGCCAAGCTGTACACCGTCCTGGCCTGGTTGGGATGTCCTATGCGT
Nature of the experiment: indirect competitive enzyme-linked aptamer assay (ic-ELAA). Particulars: binding buffer: 8 g/L NaCl, 0.2 g/L KCl, 0.1 g/L MgCl2·6H2O, 0.1 g/L CaCl2; competition with coated CBL-BSA; 1 μM aptamer (50 μL), 37 °C, 1 h.

The subject of experiment [14] is aptamer 28 (DNA, aptamer) ACGCATAGGATGCAACAACGCGAATGCCACCAATTCGTGCTTGTCGTGTCCTATGCGT
Nature of the experiment: AuNP colorimetric specificity assay (A620/A520). Particulars: 0.9 M NaCl added after binding; 1 μg/mL compound, 0.4 μM aptamer, room temperature, 30 min.

Experiment [15] concerns aptamer 47 (DNA, aptamer) ACGCATAGGTCATGCCAAGCTGTACACCGTCCTGGCCTGGTTGGGATGTCCTATGCGT
As to the kind of experiment: AuNP colorimetric specificity assay (A620/A520). Particulars: 0.9 M NaCl added after binding; 1 μg/mL compound, 0.4 μM aptamer, room temperature, 30 min.

Experiment [16] concerns aptamer 64 (DNA, aptamer) ACGCATAGGTACACCACATCGGATCGTAATGCGTATGTGACTCAGTGTGCCTATGCGT
As to the kind of experiment: AuNP colorimetric specificity assay (A620/A520). To be noted: 0.9 M NaCl added after binding; 1 μg/mL compound, 0.4 μM aptamer, room temperature, 30 min.

Experiment [17] concerns aptamer 78 (DNA, aptamer) ACGCATAGGGTACGCCACAGATCGACCTCTGGTTGGTCCTGTTGTGTGGCCTATGCGT
As to the kind of experiment: AuNP colorimetric specificity assay (A620/A520). Particulars: 0.9 M NaCl added after binding; 1 μg/mL compound, 0.4 μM aptamer, room temperature, 30 min.

Experiment [18] relates to aptamer 132 (DNA, aptamer) ACGCATAGGGACCATGCGCAGTGAACTTGGTTCTTTGTGCTCATGTGTGCCTATGCGT
As to the kind of experiment: AuNP colorimetric specificity assay (A620/A520). To be noted: 0.9 M NaCl added after binding; 1 μg/mL compound, 0.4 μM aptamer, room temperature, 30 min.

Experiment [19] concerns aptamer 154 (DNA, aptamer) ACGCATAGGGCATCACACATGTCCTTGCCATTGCTGACTTGTTTGGTGTCCTATGCGT
Nature of the experiment: AuNP colorimetric specificity assay (A620/A520). Particulars: 0.9 M NaCl added after binding; 1 μg/mL compound, 0.4 μM aptamer, room temperature, 30 min.

On to `CC(C)(C)NCC(O)c1cc(Cl)c(N)c(Cl)c1` (stereo not shown), for which the binding result in experiment [1], in experiment [2], in experiment [3], in [4], in experiment [5] and in experiment [6] was “yes” throughout. Besides, the Kd in [7] amounted to 321 ± 104.5 nM; in [8], 42.17 ± 8.98 nM; in experiment [9], 123.3 ± 14.28 nM; in experiment [10] it was 201.1 ± 42.42 nM; in experiment [11], 221.6 ± 41.87 nM; in [12] it was 268.8 ± 40.43 nM. In addition, the IC50 in experiment [13] was found to be 5.44 ± 0.01 ng/mL (≈ 0.0196 µM).
In the case of `CC(C)(C)NCC(O)c1cc(O)cc(O)c1` (stereo not shown), the binding entry in experiment [14], in [15], in experiment [16], in experiment [17], in [18] and in experiment [19] was “no” in each case.
On to `CC(C)(C)NCC(O)c1ccc(O)c(CO)c1` (stereo not shown), for which the binding result in [14], in experiment [15], in [16], in [17], in experiment [18] and in experiment [19] was “no” throughout.
Turning to `CC(CCc1ccc(O)cc1)NCC(O)c1ccc(O)cc1` (stereo not shown), the binding entry in experiment [14], in experiment [15], in experiment [16], in experiment [17], in [18] and in experiment [19] was “no” each time.
